# Laboratory results as given in paper PMC4175417 (Journal of clinical pharmacology, 2013).
# Read-outs that look alike come from different tables or passages of the source. Marks after values point to notes of the source that are not given here.
# What was measured:
# Axitinib exposure = type: in vivo; settings: human, plasma, oral
# mRCC patients [1] = settings: cited from earlier work
# [2] = In-clinic diastolic blood pressure in mRCC patients of the PK/PD analysis; type: in vivo, human; settings: maximum post-baseline dBP within the first 8 weeks; 168 mRCC patients
# mRCC = settings: second-line therapy for mRCC; cited from earlier work
# [3] = cited from earlier work
# mRCC patients [4] = assay: Efficacy in mRCC studies; type: in vivo, human
# [5] = cited from earlier work; remark: listed apart in the source
# clinical = settings: human, in vivo
# [6] = corrected serum calcium <10 mg/dL
# [7] = corrected serum calcium ≥10 mg/dL
# [8] = corrected serum calcium ≥10 vs <10 mg/dL
# [9] = hemoglobin >13 g/dL for male, >11.5 for female
# [10] = hemoglobin ≤13 g/dL for male, ≤11.5 for female
# [11] = per 10 mm Hg increase of dBP, adjusted for prognostic factors
# [12] = per 100 hxng/mL increase of AUC, adjusted for prognostic factors
# [13] = sorafenib- vs cytokine-refractory
smiles,measurement,setting,value
CNC(=O)c1ccccc1Sc1ccc2c(/C=C/c3ccccn3)n[nH]c2c1 [axitinib],AUC,Axitinib exposure,375 ng·h/mL
same,RECIST-based overall response rate,"mRCC patients [1]; study 2, cytokine-refractory mRCC",44%
same,RECIST-based overall response rate,"mRCC patients [1]; study 4, sorafenib-refractory mRCC",23%
same,RECIST-based overall response rate,"mRCC patients [1]; study 5, Japanese cytokine-refractory mRCC",50%
same,Effect of food on oral bioavailability,Form XLI,negligible effect
same,Vp (volume of distribution in peripheral compartment),final model,393 L
same,Age >60-yr effect on CL,"human, in vivo",−0.213
same,F with Form XLI,"human, in vivo",g F with Form XLI is estimated to be 0.402; calculated as 0.457 × (1 – 0.121). Note that there was no observed food effect with Form XLI.
same,"F, fasting with Form IV","human, in vivo","f For fasting effect with Form IV, F is estimated to be 0.608; calculated as 0.457 × (1 + 0.33)."
same,Fasting effect on ka,"human, in vivo",1.97
same,"Fasting on F, Form IV","human, in vivo",0.330
same,Japanese ethnicity effect on CL,"human, in vivo",−0.249
same,Q (apparent inter-compartmental clearance),"human, in vivo",4.00 (86.8) ^d L/h
same,Smoking status on CL,"human, in vivo",1.02
same,ka (first-order absorption rate constant): fed,"human, in vivo",0.482 (77) hour^–1
same,ka higher in the fasted state compared with the fed state,"human, in vivo",197%
same,"ka, fasting","human, in vivo","e For fasting effect, ka is estimated to be 1.43 hour^−1; calculated as 0.482 hour^−1 × (1 + 1.97)."
same,tlag (absorption lag time),"human, in vivo",0.454 h
same,Increase of oral bioavailability in the fasted state compared with the fed state,"human, in vivo, po",33%
same,"dBP, median (range)",[2],90 (58–116) ^e mm Hg
same,Efficacy versus sorafenib,mRCC,superior efficacy over sorafenib
same,Time to peak plasma concentration,"[3]; oral administration, fed state",2 to 6 h
same,Maximum tolerated dose (MTD),"[3]; study 1, patients with solid tumors",5 mg bid
same,mOS,mRCC patients [4]; AUC <300 hxng/mL,15.8 months
same,mPFS,mRCC patients [4]; AUC <300 hxng/mL,7.4 months
same,mOS,mRCC patients [4]; AUC ≥300 hxng/mL,37.4 months
same,mPFS,mRCC patients [4]; AUC ≥300 hxng/mL,13.8 months
same,"OS HR (95% CI), multivariate",mRCC patients [4]; ECOG PS,"2.37 (1.50, 3.72)"
same,"PFS HR (95% CI), multivariate",mRCC patients [4]; ECOG PS,"1.82 (1.17, 2.83)"
same,mOS,mRCC patients [4]; ECOG PS 0,41.6 months
same,mPFS,mRCC patients [4]; ECOG PS 0,13.7 months
same,mOS,mRCC patients [4]; ECOG PS 1,10.7 months
same,mPFS,mRCC patients [4]; ECOG PS 1,7.13 months
same,"OS HR (95% CI), univariate",mRCC patients [4]; ECOG PS 1 vs 0,"3.63 (2.40, 5.48)"
same,"PFS HR (95% CI), univariate",mRCC patients [4]; ECOG PS 1 vs 0,"2.17 (1.46, 3.23)"
same,"OS HR (95% CI), univariate","mRCC patients [4]; age, continuous","0.992 (0.972, 1.01)"
same,"PFS HR (95% CI), univariate","mRCC patients [4]; age, continuous","1.006 (0.986, 1.026)"
same,mOS,mRCC patients [4]; [6],27.7 months
same,mPFS,mRCC patients [4]; [6],11.1 months
same,mOS,mRCC patients [4]; [7],16.4 months
same,mPFS,mRCC patients [4]; [7],8.38 months
same,"OS HR (95% CI), univariate",mRCC patients [4]; [8],"1.74 (1.03, 2.96)"
same,"PFS HR (95% CI), univariate",mRCC patients [4]; [8],"1.21 (0.688, 2.13)"
same,mOS,mRCC patients [4]; cytokine-refractory,30.0 months
same,mPFS,mRCC patients [4]; cytokine-refractory,13.0 months
same,mOS,mRCC patients [4]; dBP <90 mm Hg,18.5 months
same,mPFS,mRCC patients [4]; dBP <90 mm Hg,7.86 months
same,mOS,mRCC patients [4]; dBP ≥90 mm Hg,29.5 months
same,mPFS,mRCC patients [4]; dBP ≥90 mm Hg,14.6 months
same,mOS,mRCC patients [4]; female,19.6 months
same,mPFS,mRCC patients [4]; female,7.63 months
same,"OS HR (95% CI), univariate",mRCC patients [4]; female vs male,"1.26 (0.799, 1.97)"
same,"PFS HR (95% CI), univariate",mRCC patients [4]; female vs male,"1.63 (1.09, 2.46)"
same,Increase in the probability of achieving a partial response,"mRCC patients [4]; for every 100 hxng/mL increase in AUC, logistic regression",1.5 fold
same,"PFS HR (95% CI), multivariate",mRCC patients [4]; gender,"1.72 (1.14, 2.60)"
same,"OS HR (95% CI), multivariate",mRCC patients [4]; hemoglobin,"0.348 (0.213, 0.567)"
same,"PFS HR (95% CI), multivariate",mRCC patients [4]; hemoglobin,"0.601 (0.393, 0.921)"
same,mOS,mRCC patients [4]; [9],43.3 months
same,mPFS,mRCC patients [4]; [9],14.6 months
same,mOS,mRCC patients [4]; [10],15.9 months
same,mPFS,mRCC patients [4]; [10],7.69 months
same,"OS HR (95% CI), univariate",mRCC patients [4]; high vs low hemoglobin,"0.282 (0.179, 0.443)"
same,"PFS HR (95% CI), univariate",mRCC patients [4]; high vs low hemoglobin,"0.537 (0.364, 0.792)"
same,mOS,mRCC patients [4]; male,27.7 months
same,mPFS,mRCC patients [4]; male,13.0 months
same,"OS HR (95% CI), multivariate",mRCC patients [4]; [11],"0.739 (0.586, 0.931)"
same,"PFS HR (95% CI), multivariate",mRCC patients [4]; [11],"0.660 (0.519, 0.839)"
same,"OS HR (95% CI), multivariate",mRCC patients [4]; [12],"0.866 (0.773, 0.968)"
same,"PFS HR (95% CI), multivariate",mRCC patients [4]; [12],"0.909 (0.832, 0.993)"
same,"OS HR (95% CI), multivariate",mRCC patients [4]; prior therapy,"2.12 (1.35, 3.34)"
same,"PFS HR (95% CI), multivariate",mRCC patients [4]; prior therapy,"1.60 (1.04, 2.47)"
same,"OS HR (95% CI), univariate",mRCC patients [4]; [13],"2.15 (1.39, 3.34)"
same,"PFS HR (95% CI), univariate",mRCC patients [4]; [13],"1.55 (1.02, 2.34)"
same,mOS,mRCC patients [4]; sorafenib-refractory,15.8 months
same,mPFS,mRCC patients [4]; sorafenib-refractory,7.63 months
same,Exposure compared with normal hepatic function,[5]; mild hepatic impairment,did not alter axitinib exposures
same,Higher exposure compared with normal hepatic function,[5]; moderate hepatic impairment,2 fold
same,Vd,clinical,47.3 L
same,clearance,clinical,243 mL/min
